The values below come from ChEMBL document CHEMBL1156164, “Synthesis of 26-hydroxy-22-oxocholestanic frameworks from diosgenin and hecogenin and their in vitro antiproliferative and apoptotic activity on human cervical cancer CaSki cells” (Bioorg Med Chem, 2010).

Data set [1] concerns Ca-Ski. Briefly: Antiproliferative activity against human CaSki cells after 24 hrs using crystal violet staining by ELISA. Type of data set: functional, cell-based.
The subject of data set [2] is PBMC. Put plainly: Effect on enriched human PBMC proliferation assessed as proliferating cells at IC50 after 72 hrs using CSFE labeling by flow cytometry. It counts as functional.
A short description of data set [3]: Cytotoxicity against human fibroblast cells at IC50 after 24 hrs by crystal violet staining. Type of data set: cell-based.
Data set [4] relates to PBMC. Put plainly: Induction of enriched human PBMC proliferation assessed as non-proliferating cells at IC50 after 72 hrs using CSFE labeling by flow cytometry. Type of data set: functional. (In general: A flow cytometer gives signals particle by particle.)
Data set [5] is described as follows: Induction of necrosis of PHA-activated human lymphocytes assessed as LDH accumulation in culture supernatant at IC50 after 72 hrs by INT assay. It counts as cell-based. The note with it: lymphocyte.
Data set [6] deals with Ca-Ski. Put plainly: Induction of apoptosis in human CaSki cells assessed as increase in active caspase-3 expression at IC50 after 24 hrs by immunocytochemistry. Type of data set: functional, cell-based.
For data set [7], the system named is Ca-Ski. Briefly: Cell cycle arrest in human CaSki cells assessed as DNA accumulation at sub G1 phase at IC50 after 24 hrs using propidium iodide staining by flow cytometry. Type of data set: functional, cell-based.
Data set [8] deals with Ca-Ski. Put plainly: Induction of apoptosis in human CaSki cells assessed as chromatin condensation at IC50 after 24 hrs by DAPI staining. Type of data set: functional, cell-based.
Data set [9] has as its system Ca-Ski. Put plainly: Cell cycle arrest in human CaSki cells assessed as DNA accumulation at S phase at IC50 after 24 hrs using propidium iodide staining by flow cytometry. It counts as functional, cell-based.
The subject of data set [10] is Ca-Ski. Briefly: Induction of necrosis of human CaSki cells assessed as LDH accumulation in culture supernatant at IC50 after 24 hrs by INT assay. Type of data set: functional.
For data set [11], the system named is Ca-Ski. Briefly: Cell cycle arrest in human CaSki cells assessed as DNA accumulation at G2/M phase at IC50 after 24 hrs using propidium iodide staining by flow cytometry. Type of data set: functional, cell-based.
Data set [12] deals with Ca-Ski. Put plainly: Induction of apoptosis in human CaSki cells assessed as fragmentation of genomic DNA at IC50 after 24 hrs by TUNEL assay. Type of data set: functional, cell-based.
The test system of data set [13] is Ca-Ski. Put plainly: Effect on human CaSki cell morphology assessed as formation of small spherical cells at IC50 after 24 hrs by microscopy. Type of data set: functional, cell-based.
Data set [14] concerns Ca-Ski. Briefly: Cell cycle arrest in human CaSki cells assessed as DNA accumulation at G1 phase at IC50 after 24 hrs using propidium iodide staining by flow cytometry. Type of data set: functional, cell-based.
The test system of data set [15] is Ca-Ski. Put plainly: Effect on human CaSki cell morphology assessed as formation of large cells at IC50 after 24 hrs by microscopy. It counts as functional, cell-based.
The subject of data set [16] is Ca-Ski. Put plainly: Induction of apoptosis in human CaSki cells assessed as appearance of apoptotic bodies at IC50 after 24 hrs by DAPI staining. Type of data set: functional, cell-based.
Data set [17] concerns Ca-Ski. Put plainly: Effect on human CaSki cell morphology assessed as formation of non-reflective small inclusion bodies at IC50 after 24 hrs by microscopy. It counts as functional, cell-based.

Active and inactive are the calls of the source. The calls are words filed in the database; no cut-off is given here.

For the compound `CC(=O)O[C@H]1CC[C@@]2(C)C(=CC[C@H]3[C@@H]4C[C@H](OC(C)=O)[C@H]([C@H](C)C(=O)CC[C@@H](C)CO)[C@@]4(C)CC[C@@H]32)C1`, the Activity result was “Dose-dependent effect” in the data set with Ca-Ski [1]; 76.15% in the data set on PBMC [2]; “Not Active” in [3]; 23.85% in the data set with PBMC [4]; “Not Active” in [5]. In addition, the IC50 – broadly, the concentration that gives 50% inhibition – with Ca-Ski [1] is 47.1 µM. The outcome in the data set with Ca-Ski [6], in the data set on Ca-Ski [7], in the data set on Ca-Ski [8], in the data set with Ca-Ski [9], in the data set with Ca-Ski [11] and in the data set on Ca-Ski [13] was Active. Also, the result in the data set on Ca-Ski [14] was Active. Moreover, the outcome in the data set with Ca-Ski [10] and with Ca-Ski [12] was inactive.

On to `CC(=O)O[C@H]1CC[C@@]2(C)[C@@H](CC[C@@H]3[C@@H]2CC(=O)[C@]2(C)[C@@H]([C@H](C)C(=O)CC[C@@H](C)CO)[C@@H](OC(C)=O)C[C@@H]32)C1`, for which the Activity result with Ca-Ski [1] is “Dose-dependent effect”; in the data set on PBMC [2] it was 63.68%; in data set [3], 18%; in the data set on PBMC [4] it was 36.34%; in [5], “Not Active”; in the data set on Ca-Ski [10], 28%. In the data set on Ca-Ski [1], this compound gave an IC50 of 188 µM. Moreover, the outcome in the data set on Ca-Ski [15], in the data set on Ca-Ski [6], in the data set with Ca-Ski [7], with Ca-Ski [16], in the data set with Ca-Ski [9] and in the data set with Ca-Ski [17] was Active. Further, the outcome in the data set on Ca-Ski [12] was Active. Besides, the outcome with Ca-Ski [11] and with Ca-Ski [14] was inactive.
